Assay results from ChEMBL document CHEMBL1201862, “PubChem BioAssay data set” (2004).
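Values below derive from 48-hour exposures of cells grown in 96-well plates, with endpoints linearly interpolated between the two concentrations bracketing the appropriate inhibition level. The concentration for 50% growth inhibition is given as GI50.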 The source made the active and inactive calls. Rule as the data show it: active = GI50 up to about 1.1 µM and inactive = higher.

Experiments:
Assay in all cases: DTP human tumour cell line panel, 48 h
[1] = system: RXF 631
[2] = system: T47D
[3] = system: MDA-MB-435
[4] = system: BT-549
[5] = system: MDA-N
[6] = system: PC-3
[7] = system: MDA-MB-231
[8] = system: Hs-578T

Measured: GI50

O=c1[nH]c(=O)n(C2CC(O)C(CO)O2)cc1C#Cc1cc(C(F)(F)F)cc(C(F)(F)F)c1 (centres undefined)
inactive: [1] 21.3 µM

CC(=O)N1N=C(c2ccc3ccccc3c2O)CC1c1cccs1 (centres undefined)
inactive: [2] 11.6 µM | [3] 18 µM | [4] 19.5 µM | [5] 20.2 µM | [6] 11.1 µM | [7] 20.6 µM | [8] 28.6 µM

NC12CCC(CC1=O)C2 (centres undefined)
inactive: [2] > 100 µM | [3] > 100 µM | [5] > 100 µM | [6] > 100 µM | [7] > 100 µM | [8] > 100 µM
